According to patent US9771369B2, “Compounds and methods for kinase modulation, and indications therefor” (Plexxikon Inc., priority 2014, dated 2017):

molecular target: c-Kit kinase (Homo sapiens (Human), UniProt P10721); experiment: c-Kit biochemical assay (AlphaScreen kinase activity)
Method: Assays for biochemical cell-based activity of c-kit kinase are known in the art, for example, as described in U.S. Pat. Nos. 7,498,342 and 7,846,941, the disclosures of which are hereby incorporated by reference as it relates to such assays. The c-kit (or kinase domain thereof) is an active kinase in AlphaScreen. IC50 values are determined with respect to inhibition of c-Kit kinase activity, where inhibition of phosphorylation of a peptide substrate is measured as a function of compound concentration. Compounds to be tested were dissolved in DMSO to a concentration of 30 mM. These were diluted 30 μl into 130 μl of DMSO (4 mM) and 1 μl was added to an assay plate. These were then serially diluted 1:3 (50 μl to 100 μl DMSO) for a total of 8 points. Plates were prepared such that each kinase reaction is 30 μl in 1× kinase buffer (50 mM HEPES, pH 7.2, 5 mM MgCl2, 5 mM MnCl2, 0.01% NP-40, 0.2% BSA), 5% DMSO and 10 μM ATP. Substrate was 100 nM biotin-(E4Y)3 (Open Source Biotech, Inc.). C-kit kinase was at 0.1 ng per sample. After incubation of the kinase reaction for 1 hour at room temperature, 5 μl of donor beads (Streptavidin coated beads (Perkin Elmer Life Science) final concentration 1 μg/ml) in stop buffer (50 mM EDTA in 1× kinase buffer) was added, the sample was mixed and incubated for 30 minutes at room temperature before adding […] of acceptor beads (PY30 coated beads (Perkin Elmer Life Science) final concentration 1 μg/ml) in stop buffer. The samples were incubated for 60 minutes at room temperature and the signal per well was read on AlphaQuest reader. Phosphorylated substrate results in binding of the PY30 antibody and association of the donor and acceptor beads such that signal correlates with kinase activity. The signal vs. compound concentration was used to determine the IC50.
Compounds were also tested using a similar assay with a 10-fold higher ATP concentration. For these samples, compounds to be tested were dissolved in DMSO to a concentration of 30 mM. These were diluted 30 μl into 130 μl of DMSO (4 mM) and 1 μl was added to an assay plate. These were then serially diluted 1:3 (50 μl to 100 μl DMSO) for a total of 8 points. Plates were prepared such that each kinase reaction is 30 μl in 1× kinase buffer (25 mM HEPES, pH 7.5, 2 mM MgCl2, 2 mM MnCl2, 0.01% […], 1 mM DTT, and 0.001% BSA), 5% DMSO and 100 μM ATP. Substrate was 30 nM biotin-(E4Y)10 (Upstate Biotech, Cat#12-440). C-kit kinase was at 1 ng per sample. After incubation of the kinase reaction for 1 hour at room temperature, 5 μl of donor beads (Streptavidin coated beads (Perkin Elmer Life Science) final concentration 10 μg/ml) in stop buffer (25 mM HEPES pH 7.5, 100 mM EDTA, 0.3% BSA) was added, the sample was mixed and incubated for 30 minutes at room temperature before adding 5 μl of acceptor beads (PY30 coated beads (Perkin Elmer Life Science) final concentration 10 μg/ml) in stop buffer. The samples were incubated for 60 minutes at room temperature and the signal per well was read on AlphaQuest or Envision reader (Perkin Elmer Life Science). Phosphorylated substrate results in binding of the PY30 antibody and association of the donor and acceptor beads such that signal correlates with kinase activity. The signal vs. compound concentration was used to determine the IC50.
The c-kit enzyme used in the above assay was either obtained from Cell Signaling Technology (Cat. #7754) or was prepared as follows: A plasmid encoding kit (DNA and encoded protein sequences shown below) was engineered using common polymerase chain reaction (PCR) methods. Complementary DNA cloned from various human tissues were purchased from Invitrogen, and these were used as substrates in the PCR reactions. Specific custom synthetic oligonucleotide primers were designed to initiate the PCR product, and also to provide the appropriate restriction enzyme cleavage sites for ligation with the plasmids. […]

Chain of c-Kit kinase (P10721 26-976): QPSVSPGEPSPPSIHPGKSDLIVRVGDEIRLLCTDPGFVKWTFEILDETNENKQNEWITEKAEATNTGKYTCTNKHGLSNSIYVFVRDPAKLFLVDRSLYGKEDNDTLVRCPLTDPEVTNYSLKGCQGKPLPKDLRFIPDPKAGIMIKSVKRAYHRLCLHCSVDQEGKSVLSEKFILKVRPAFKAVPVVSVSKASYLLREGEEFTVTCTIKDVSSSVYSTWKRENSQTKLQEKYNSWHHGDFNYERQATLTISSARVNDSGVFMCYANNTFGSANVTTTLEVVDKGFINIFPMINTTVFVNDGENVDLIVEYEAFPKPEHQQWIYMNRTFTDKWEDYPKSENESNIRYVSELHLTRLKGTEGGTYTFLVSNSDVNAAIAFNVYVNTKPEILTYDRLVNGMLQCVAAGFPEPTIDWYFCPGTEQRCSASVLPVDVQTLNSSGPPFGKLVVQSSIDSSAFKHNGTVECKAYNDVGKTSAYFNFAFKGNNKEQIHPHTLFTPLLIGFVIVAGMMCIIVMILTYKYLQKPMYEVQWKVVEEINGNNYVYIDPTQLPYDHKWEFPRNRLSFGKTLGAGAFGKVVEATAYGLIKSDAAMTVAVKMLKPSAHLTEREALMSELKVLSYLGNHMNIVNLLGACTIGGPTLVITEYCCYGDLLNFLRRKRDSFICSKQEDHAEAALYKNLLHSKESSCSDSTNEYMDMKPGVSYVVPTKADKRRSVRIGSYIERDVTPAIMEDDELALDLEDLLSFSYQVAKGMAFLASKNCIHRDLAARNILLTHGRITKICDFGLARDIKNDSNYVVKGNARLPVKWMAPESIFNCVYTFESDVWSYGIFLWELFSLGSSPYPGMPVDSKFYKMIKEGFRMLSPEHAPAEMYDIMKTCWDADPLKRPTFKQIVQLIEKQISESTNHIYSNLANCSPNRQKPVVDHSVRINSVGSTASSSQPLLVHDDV

Structure (SMILES) | IC50 [µM]
COc1cc(-c2cc3c(N4CCC(c5nc(C)c(-c6ccc(F)cc6)[nH]5)CC4)ncnc3[nH]2)ccn1 [P-3007, 4-[4-[5-(4-fluorophenyl)-4-methyl-1H-imidazol-2-yl]-1-piperidyl]-6-(2-methoxy-4-pyridyl)-7H-pyrrolo[2,3-d]pyrimidine] | 1 to 10
COc1cc(-c2cc3c(N4CCC(c5nc(C6CC6)c(-c6ccccc6)[nH]5)CC4)ncnc3[nH]2)ccn1 [P-3008, 4-[4-(4-cyclopropyl-5-phenyl-1H-imidazol-2-yl)-1-piperidyl]-6-(2-methoxy-4-pyridyl)-7H-pyrrolo[2,3-d]pyrimidine] | 0.0001 to 1
Fc1ccc(-c2cc3c(N4CCC(c5nc(C6CC6)c(-c6ccccc6)[nH]5)CC4)ncnc3[nH]2)cc1 [P-3009, 4-[4-(4-cyclopropyl-5-phenyl-1H-imidazol-2-yl)-1-piperidyl]-6-(4-fluorophenyl)-7H-pyrrolo[2,3-d]pyrimidine] | 0.0001 to 1
N#Cc1ccc(-c2cc3c(N4CCC(c5nc(C6CC6)c(-c6ccccc6)[nH]5)CC4)ncnc3[nH]2)cc1 [P-3010, 4-[4-[4-(4-cyclopropyl-5-phenyl-1H-imidazol-2-yl)-1-piperidyl]-7H-pyrrolo[2,3-d]pyrimidin-6-yl]benzonitrile] | 0.0001 to 1
Cc1nc(C2CCN(c3ncnc4[nH]c(-c5ccc(F)cc5)cc34)CC2)[nH]c1-c1cccc(OC(F)(F)F)c1 [P-3011, 6-(4-fluorophenyl)-4-[4-[4-methyl-5-[3-(trifluoromethoxy)phenyl]-1H-imidazol-2-yl]-1-piperidyl]-7H-pyrrolo[2,3-d]pyrimidine] | 1 to 10
CCOc1cc(-c2[nH]c(C3CCN(c4ncnc5[nH]c(-c6ccc(C#N)cc6)cc45)CC3)nc2C)ccc1C [P-3095, 4-[4-[4-[5-(3-ethoxy-4-methyl-phenyl)-4-methyl-1H-imidazol-2-yl]-1-piperidyl]-7H-pyrrolo[2,3-d]pyrimidin-6-yl]benzonitrile] | 0.0001 to 1
CCOc1cc(-c2[nH]c(C3CCN(c4ncnc5[nH]c(-c6ccnc(OC)c6)cc45)CC3)nc2C)ccc1C [P-3096, 4-[4-[5-(3-ethoxy-4-methyl-phenyl)-4-methyl-1H-imidazol-2-yl]-1-piperidyl]-6-(2-methoxy-4-pyridyl)-7H-pyrrolo[2,3-d]pyrimidine] | 0.0001 to 1
Cc1nc(C2CCN(c3ncnc4[nH]c(-c5ccnc(C(F)(F)F)c5)cc34)CC2)[nH]c1-c1ccccc1 [P-3097, 4-[4-(4-methyl-5-phenyl-1H-imidazol-2-yl)-1-piperidyl]-6-[2-(trifluoromethyl)-4-pyridyl]-7H-pyrrolo[2,3-d]pyrimidine] | 1 to 10
Cc1nc(C2CCN(c3ncnc4[nH]c(-c5cccc(C(F)(F)F)c5)cc34)CC2)[nH]c1-c1ccccc1 [P-3098, 4-[4-(4-methyl-5-phenyl-1H-imidazol-2-yl)-1-piperidyl]-6-[3-(trifluoromethyl)phenyl]-7H-pyrrolo[2,3-d]pyrimidine] | 1 to 10
CCOc1ccc(-c2[nH]c(C3(C)CCN(c4ncnc5[nH]c(C)cc45)CC3)nc2C)cc1C [P-3099, 4-[4-[5-(4-ethoxy-3-methyl-phenyl)-4-methyl-1H-imidazol-2-yl]-4-methyl-1-piperidyl]-6-methyl-7H-pyrrolo[2,3-d]pyrimidine] | 0.0001 to 1
CCc1ccc(-c2[nH]c(C3(C)CCN(c4ncnc5[nH]c(C)cc45)CC3)nc2C)cc1 [P-3101, 4-[4-[5-(4-ethylphenyl)-4-methyl-1H-imidazol-2-yl]-4-methyl-1-piperidyl]-6-methyl-7H-pyrrolo[2,3-d]pyrimidine] | 0.0001 to 1
COc1ccc(-c2[nH]c(C3(C)CCN(c4ncnc5[nH]c(C)cc45)CC3)nc2C)cc1C [P-3102, 4-[4-[5-(4-methoxy-3-methyl-phenyl)-4-methyl-1H-imidazol-2-yl]-4-methyl-1-piperidyl]-6-methyl-7H-pyrrolo[2,3-d]pyrimidine] | 1 to 10
COc1cc(-c2cc3c(N4CCC(c5nc(C)c(-c6ccc(C)c(OC)c6)[nH]5)CC4)ncnc3[nH]2)ccn1 [P-3104, 4-[4-[5-(3-methoxy-4-methyl-phenyl)-4-methyl-1H-imidazol-2-yl]-1-piperidyl]-6-(2-methoxy-4-pyridyl)-7H-pyrrolo[2,3-d]pyrimidine] | 10 to 300
